The source of these data is US10092570B2 (Incyte Corporation, priority 2011, dated 2018).

Some results are limits rather than exact numbers.

In assay [1] the target is PI3Kδ (p110δ/p85α) (Homo sapiens (Human), UniProt O00329). The experiment in a line: Example A3: PI3Kδ scintillation proximity assay. In kind it is biochemical. To be noted: scintillation proximity assay, 20 μM ATP, 4 nM PI3Kδ; read-out: PI3Kδ SPA IC50. The method, boiled down: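 p110δ/p85α (4 nM) phosphorylated 20 μM PIP2 with 20 μM ATP plus [γ-33P]ATP in MOPS pH 6.7, MgCl2, DTT, CHAPS, 0.5% DMSO, at RT. Stopped with EDTA/excess ATP, product captured on WGA SPA beads overnight and counted; IC50 from percent control activity versus log inhibitor.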

For assay [2], the system named is Pfeiffer cell line (diffuse large B cell lymphoma). The experiment in a line: Example B2: Pfeiffer cell proliferation assay. In kind it is cell-based. As to conditions: Pfeiffer cells, [3H]-thymidine incorporation. On the procedure: Pfeiffer cell line (diffuse large B cell lymphoma) are purchased from ATCC (Manassas, Va.) and maintained in the culture medium recommended (RPMI and 10% FBS). To measure the anti-proliferation activity of the compounds, the Pfeiffer cells are plated with the culture medium (2×10^3 cells/well/per 200 μl) into 96-well ultra-low binding plates (Corning, Corning, N.Y.), in the presence or absence of a concentration range of test compounds. After 3-4 days, [^3H]-thymidine (1 μCi/well) (PerkinElmer, Boston, Mass.) in PBS is then added to the cell culture for an additional 12 hours before the incorporated radioactivity is separated by filtration with water through GF/B filters (Packard Bioscience, Meridenj, Conn.) and measured by liquid scintillation counting with a TopCount (Packard Bioscience).

Sequence of PI3Kδ (p110δ/p85α) (O00329 whole entry): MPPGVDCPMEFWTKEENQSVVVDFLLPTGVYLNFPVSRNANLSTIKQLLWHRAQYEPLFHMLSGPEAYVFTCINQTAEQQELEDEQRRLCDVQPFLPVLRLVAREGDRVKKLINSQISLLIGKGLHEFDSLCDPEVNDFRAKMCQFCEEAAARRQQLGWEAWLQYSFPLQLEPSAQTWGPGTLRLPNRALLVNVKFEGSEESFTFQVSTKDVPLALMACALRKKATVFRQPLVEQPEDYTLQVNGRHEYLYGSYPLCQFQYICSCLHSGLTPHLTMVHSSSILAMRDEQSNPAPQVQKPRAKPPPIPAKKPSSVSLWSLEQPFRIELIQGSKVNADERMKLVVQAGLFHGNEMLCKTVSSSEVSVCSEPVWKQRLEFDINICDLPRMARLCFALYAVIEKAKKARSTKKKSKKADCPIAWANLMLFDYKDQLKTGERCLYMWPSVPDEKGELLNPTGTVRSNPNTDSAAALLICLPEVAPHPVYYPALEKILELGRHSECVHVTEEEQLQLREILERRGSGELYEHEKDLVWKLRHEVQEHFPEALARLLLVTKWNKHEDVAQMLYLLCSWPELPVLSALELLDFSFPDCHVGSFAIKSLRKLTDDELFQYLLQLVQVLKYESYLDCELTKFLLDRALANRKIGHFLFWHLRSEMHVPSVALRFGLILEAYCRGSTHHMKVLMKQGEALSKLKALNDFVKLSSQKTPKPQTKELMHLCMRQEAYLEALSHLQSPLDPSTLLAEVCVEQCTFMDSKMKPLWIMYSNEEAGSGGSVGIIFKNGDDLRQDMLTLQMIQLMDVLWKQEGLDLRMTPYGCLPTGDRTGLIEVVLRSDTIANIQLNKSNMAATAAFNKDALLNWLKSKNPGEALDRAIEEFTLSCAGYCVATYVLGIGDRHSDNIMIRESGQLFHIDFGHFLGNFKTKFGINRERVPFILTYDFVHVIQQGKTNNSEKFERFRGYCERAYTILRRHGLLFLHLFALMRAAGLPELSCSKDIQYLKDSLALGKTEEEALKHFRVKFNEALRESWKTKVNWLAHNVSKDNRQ
Sequence of PI3Kδ (p110δ/p85α) (P27986 whole entry partner): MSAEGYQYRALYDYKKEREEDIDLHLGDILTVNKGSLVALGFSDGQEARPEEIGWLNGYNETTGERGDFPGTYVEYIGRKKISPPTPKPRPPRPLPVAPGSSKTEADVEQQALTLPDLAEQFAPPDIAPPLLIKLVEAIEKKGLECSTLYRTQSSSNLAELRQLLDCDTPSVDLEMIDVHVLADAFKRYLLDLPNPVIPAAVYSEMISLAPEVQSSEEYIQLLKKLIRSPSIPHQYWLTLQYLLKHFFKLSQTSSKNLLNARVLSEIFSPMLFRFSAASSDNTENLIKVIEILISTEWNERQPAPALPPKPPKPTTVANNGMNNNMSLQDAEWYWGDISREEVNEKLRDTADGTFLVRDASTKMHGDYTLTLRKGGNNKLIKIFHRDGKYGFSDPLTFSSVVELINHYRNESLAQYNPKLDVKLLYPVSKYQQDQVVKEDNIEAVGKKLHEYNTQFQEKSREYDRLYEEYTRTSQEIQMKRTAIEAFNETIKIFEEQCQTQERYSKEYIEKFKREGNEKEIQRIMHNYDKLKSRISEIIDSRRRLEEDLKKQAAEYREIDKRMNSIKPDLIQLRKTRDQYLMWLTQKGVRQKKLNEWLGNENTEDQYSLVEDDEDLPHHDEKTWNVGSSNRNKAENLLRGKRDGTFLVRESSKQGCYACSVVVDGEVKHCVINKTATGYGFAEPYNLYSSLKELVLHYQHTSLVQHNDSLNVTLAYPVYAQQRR

Regarding `COc1c(C(C)n2nc(C)c3c(N)ncnc32)cc(Cl)c(C#N)c1C1CN(C[C@@H](C)O)C1` (stereo partly drawn) [Example 270, 4-[1-(4-Amino-3-methyl-1H-pyrazolo[3,4-d]pyrimidin-1-yl)ethyl]-6-chloro-2-{1-[(2R)-2-hydroxypropyl]azetidin-3-yl}-3-methoxybenzonitrile], the IC50 was < 10 nM in assay [1] and < 10 nM in assay [2] (Homo sapiens, Pfeiffer).

As for `COc1c(C(C)n2nc(C)c3c(N)ncnc32)cc(Cl)c(C)c1C1CN(C[C@@H](C)O)C1` (single isomer, unassigned) [Example 103], the IC50 in assay [1] was < 10 nM; in assay [2], 10 to 50 nM.

On to `CCOc1c(C(C)n2nc(C)c3c(N)ncnc32)cc(Cl)c(C#N)c1C1CN(C[C@@H](C)O)C1` (stereo partly drawn) [Example 221, 4-[1-(4-Amino-3-methyl-1H-pyrazolo[3,4-d]pyrimidin-1-yl)ethyl]-6-chloro-3-ethoxy-2-{1-[(2R)-2-hydroxypropyl]azetidin-3-yl}benzonitrile], for which the IC50 is < 10 nM in assay [1] and < 10 nM in assay [2] (Homo sapiens, Pfeiffer).

Regarding `COc1c(C(C)n2nc(C)c3c(N)ncnc32)cc(Cl)c(C#N)c1C1CN(C)C1` (single isomer, unassigned) [Example 262, 4-[1-(4-Amino-3-methyl-1H-pyrazolo[3,4-d]pyrimidin-1-yl)ethyl]-6-chloro-3-methoxy-2-(1-methylazetidin-3-yl)benzonitrile], the IC50 in assay [1] is < 10 nM; in assay [2] (Homo sapiens, Pfeiffer), < 10 nM.

Take `CCOc1c(C(C)n2nc(C)c3c(N)ncnc32)cc(Cl)c(F)c1C1CN(C(C)C)C1` (stereo not drawn) [Example 139, 1-{1-[5-Chloro-2-ethoxy-4-fluoro-3-(1-isopropylazetidin-3-yl)phenyl]ethyl}-3-methyl-1H-pyrazolo[3,4-d]pyrimidin-4-amine]: the IC50 in assay [1] is < 10 nM; in assay [2] (Homo sapiens, Pfeiffer) it was < 10 nM.

Regarding `COc1c(C(C)n2nc(C)c3c(N)ncnc32)cc(C)c(C#N)c1C1CN(C[C@H](C)O)C1` (single isomer, unassigned) [Example 315], the IC50 was < 10 nM in assay [1] and < 10 nM in assay [2] (Homo sapiens, Pfeiffer).

`COc1c(C(C)n2nc(C)c3c(N)ncnc32)cc(Cl)c(C)c1C1CN([C@@H](C)CO)C1` (stereo partly drawn) [Example 157]: the IC50 in assay [1] was < 10 nM; in assay [2] (Homo sapiens, Pfeiffer), 10 to 50 nM.

For the compound `COc1c(C(C)n2nc(C)c3c(N)ncnc32)cc(Cl)c(C)c1C1CN(CCO)C1` (single isomer, unassigned) [Example 104, 2-(3-{3-[1-(4-Amino-3-methyl-1H-pyrazolo[3,4-d]pyrimidin-1-yl)ethyl]-5-chloro-2-methoxy-6-methylphenyl}azetidin-1-yl)ethanol], the IC50 is < 10 nM in assay [1] and 10 to 50 nM in assay [2] (Homo sapiens, Pfeiffer).

Take `COc1c(C(C)n2nc(C)c3c(N)ncnc32)cc(Cl)c(C)c1C1CN(CC(C)O)C1` (stereo in doubt) [Example 102, (2S)-1-(3-{3-[1-(4-Amino-3-methyl-1H-pyrazolo[3,4-d]pyrimidin-1-yl)ethyl]-5-chloro-2-methoxy-6-methylphenyl}azetidin-1-yl)propan-2-ol]: the IC50 was < 10 nM in assay [1] and < 10 nM in assay [2] (Homo sapiens, Pfeiffer).

As for `COc1c(C(C)n2nc(C)c3c(N)ncnc32)cc(Cl)c(C#N)c1C1CN(C[C@H](C)O)C1` (stereo partly drawn) [Example 269, 4-[1-(4-Amino-3-methyl-1H-pyrazolo[3,4-d]pyrimidin-1-yl)ethyl]-6-chloro-2-{1-[(2S)-2-hydroxypropyl]azetidin-3-yl}-3-methoxybenzonitrile], the IC50 in assay [1] was < 10 nM; in assay [2] (Homo sapiens, Pfeiffer) it was < 10 nM.

Regarding `CCOc1c(C(C)n2nc(C)c3c(N)ncnc32)cc(Cl)c(F)c1C1CN(CC(C)(C)O)C1` (racemic) [Example 140, 1-(3-{3-[1-(4-Amino-3-methyl-1H-pyrazolo[3,4-d]pyrimidin-1-yl)ethyl]-5-chloro-2-ethoxy-6-fluorophenyl}azetidin-1-yl)-2-methylpropan-2-ol], the IC50 is < 10 nM in assay [1] and < 10 nM in assay [2] (Homo sapiens, Pfeiffer).

In the case of `CCOc1c(C(C)n2nc(C(F)F)c3c(N)ncnc32)cc(Cl)c(F)c1C1CN(C[C@H](C)O)C1` (stereo partly drawn) [Example 154, (2S)-1-[3-(3-{1-[4-Amino-3-(difluoromethyl)-1H-pyrazolo[3,4-d]pyrimidin-1-yl]ethyl}-5-chloro-2-ethoxy-6-fluorophenyl)azetidin-1-yl]propan-2-ol], the IC50 in assay [1] was < 10 nM; in assay [2] (Homo sapiens, Pfeiffer) it was < 10 nM.

Consider `CCOc1c(C(C)n2nc(C)c3c(N)ncnc32)cc(Cl)c(F)c1C1CN(C[C@@H](C)O)C1` (stereo partly drawn) [Example 142, (2R)-1-(3-{3-[1-(4-Amino-3-methyl-1H-pyrazolo[3,4-d]pyrimidin-1-yl)ethyl]-5-chloro-2-ethoxy-6-fluorophenyl}azetidin-1-yl)propan-2-ol], for which the IC50 in assay [1] is < 10 nM; in assay [2] (Homo sapiens, Pfeiffer), < 10 nM.

In the case of `CCOc1c(C(C)n2nc(C)c3c(N)ncnc32)cc(Cl)c(C#N)c1C1CN(C[C@H](C)O)C1` (stereo partly drawn) [Example 220, 4-[1-(4-Amino-3-methyl-1H-pyrazolo[3,4-d]pyrimidin-1-yl)ethyl]-6-chloro-3-ethoxy-2-{1-[(2S)-2-hydroxypropyl]azetidin-3-yl}benzonitrile], the IC50 in assay [1] was < 10 nM; in assay [2] (Homo sapiens, Pfeiffer), < 10 nM.

`CCOc1c(C(C)n2nc(C)c3c(N)ncnc32)cc(Cl)c(C#N)c1C1CN(C)C1` (single isomer, unassigned) [Example 213, 4-[1-(4-Amino-3-methyl-1H-pyrazolo[3,4-d]pyrimidin-1-yl)ethyl]-6-chloro-3-ethoxy-2-(1-methylazetidin-3-yl)benzonitrile]: the IC50 in assay [1] is < 10 nM; in assay [2] (Homo sapiens, Pfeiffer), < 10 nM.

Consider `CCOc1c(C(C)n2nc(C)c3c(N)ncnc32)cc(C)c(C#N)c1-c1ccc(C(=O)N(C)C)nc1` (stereo not drawn) [Example 314, 5-{3-[1-(4-amino-3-methyl-1H-pyrazolo[3,4-d]pyrimidin-1-yl)ethyl]-6-cyano-2-ethoxy-5-methylphenyl}-N,N-dimethylpyridine-2-carboxamide], for which the IC50 in assay [2] (Homo sapiens, Pfeiffer) was < 10 nM.

Turning to `CCOc1c(C(C)n2nc(C)c3c(N)ncnc32)cc(Cl)c(F)c1C1CNC(=O)O1` (single isomer, unassigned) [Example 357, 5-{3-[1-(4-amino-3-methyl-1H-pyrazolo[3,4-d]pyrimidin-1-yl)ethyl]-5-chloro-2-ethoxy-6-fluorophenyl}-1,3-oxazolidin-2-one], the IC50 in assay [1] was < 10 nM; in assay [2] (Homo sapiens, Pfeiffer), < 10 nM.

Take `COc1c(C(C)n2nc(C)c3c(N)ncnc32)cc(Cl)c(Cl)c1C1CN(CC(C)(C)O)C1` (single isomer, unassigned) [Example 303, 1-(3-{3-[1-(4-Amino-3-methyl-1H-pyrazolo[3,4-d]pyrimidin-1-yl)ethyl]-5,6-dichloro-2-methoxyphenyl}azetidin-1-yl)-2-methylpropan-2-ol]: the IC50 in assay [2] (Homo sapiens, Pfeiffer) is < 10 nM.

In the case of `CCOc1c(C(C)n2nc(C)c3c(N)ncnc32)cc(Cl)c(C)c1C1CN(C[C@H](C)O)C1` (stereo partly drawn) [Example 96, (2S)-1-(3-{3-[1-(4-Amino-3-methyl-1H-pyrazolo[3,4-d]pyrimidin-1-yl)ethyl]-5-chloro-2-ethoxy-6-methylphenyl}azetidin-1-yl)propan-2-ol bis(trifluoroacetate)], the IC50 is < 10 nM in assay [1] and < 10 nM in assay [2] (Homo sapiens, Pfeiffer).

In the case of `COc1c(C(C)n2nc(C)c3c(N)ncnc32)cc(Cl)c(C)c1-c1ccc(C(=O)N(C)C)nc1` (stereo not drawn) [Example 167, 5-(3-(1-(4-Amino-3-methyl-1H-pyrazolo[3,4-d]pyrimidin-1-yl)ethyl)-5-chloro-2-methoxy-6-methylphenyl)-N,N-dimethylpicolinamide bis(2,2,2-trifluoroacetate)], in assay [2] (Homo sapiens, Pfeiffer), the IC50 was < 10 nM.

As to `CCOc1c(C(C)n2nc(C)c3c(N)ncnc32)cc(Cl)c(C#N)c1C1CN(CC(C)(C)O)C1` (single isomer, unassigned) [Example 222, 4-[1-(4-Amino-3-methyl-1H-pyrazolo[3,4-d]pyrimidin-1-yl)ethyl]-6-chloro-3-ethoxy-2-[1-(2-hydroxy-2-methylpropyl)azetidin-3-yl]benzonitrile], the IC50 in assay [2] (Homo sapiens, Pfeiffer) is < 10 nM.

Turning to `CCOc1c(C(C)n2nc(C)c3c(N)ncnc32)cc(Cl)c(C#N)c1C1CN(S(C)(=O)=O)C1` (single isomer, unassigned) [Example 248, 4-[1-(4-Amino-3-methyl-1H-pyrazolo[3,4-d]pyrimidin-1-yl)ethyl]-6-chloro-3-ethoxy-2-[1-(methylsulfonyl)azetidin-3-yl]benzonitrile], in assay [2] (Homo sapiens, Pfeiffer), the IC50 is < 10 nM.

`COc1c(C(C)n2nc(C)c3c(N)ncnc32)cc(Cl)c(F)c1C1CN(C[C@H](C)O)C1` (single isomer, unassigned) [68 (1st peak)]: in assay [2] (Homo sapiens, Pfeiffer), the IC50 is < 10 nM.

With `CCOc1c(C(C)n2nc(C)c3c(N)ncnc32)cc(Cl)c(F)c1C1COC(=O)N1` (single isomer, unassigned) [Example 354, 4-{3-[1-(4-amino-3-methyl-1H-pyrazolo[3,4-d]pyrimidin-1-yl)ethyl]-5-chloro-2-ethoxy-6-fluorophenyl}-1,3-oxazolidin-2-one], the IC50 in assay [2] (Homo sapiens, Pfeiffer) is < 10 nM.

Take `CCOc1c(C(C)n2nc(C)c3c(N)ncnc32)cc(Cl)c(F)c1C1CN(CC(N)=O)C1` (racemic) [Example 148, 2-(3-{3-[1-(4-Amino-3-methyl-1H-pyrazolo[3,4-d]pyrimidin-1-yl)ethyl]-5-chloro-2-ethoxy-6-fluorophenyl}azetidin-1-yl)acetamide]: the IC50 in assay [2] (Homo sapiens, Pfeiffer) was < 10 nM.
